Data as given in US8143025B2, “Antibodies against vascular endothelial growth factor receptor-1” (ImClone LLC, priority 2004, dated 2012).

Tested on: MDA-MB-435 xenograft
Assay: MDA-MB-435 breast tumor xenograft
Type: in vivo, mouse
Conditions: MDA-MB-435 model, differences did not reach statistical significance
Protocol: Athymic nude mice (Charles River Laboratories, Wilmington, Mass.) were injected subcutaneously in the left flank area with 2×10^6 of DU4475 cells or 5×10^6 of MDA-MB-231 and MDA-MB-435 cells mixed in Matrigel (Collaborative Research Biochemicals. Bedford, Mass.). In the DU4475 and MDA-MB-231 models, tumors were allowed to reach approximately 200 mm^3 in size and then mice were randomized into groups of 12-16 animals per group. Animals received i.p. administration of the anti-VEGFR-I antibody clones 6F9, 15F11, or 18F1 at a dose of 0.5 mg (MDA-MB-231) or 1 mg (DU4475) three times each week. In the MDA-MB-435 model, the tumor cells were implanted subcutaneously into mammary fat pad area in the mouse. After tumors grew to reach approximately 200 mm^3 in size, mice were randomized into groups of 15 animals per group and intraperitoneally administered with 0.5 mg per dose of 18F1 antibody three times each week. Mice in control groups received an equal volume of saline solution. Treatment of animals was continued for the duration of the experiment. Tumors were measured twice each week with calipers. Tumor volumes were calculated using the formula [π/6 (w1×w2×w2)], where “w1” represents the largest tumor diameter and “w2” represents the smallest tumor diameter. […] Tumor growth was evaluated approximately twice weekly, with tumor volume calculated as π/6* (Length*Width^2), where Length=longest diameter and Width=diameter perpendicular to Length. Tumor dimensions were measured with calipers. T/C % was calculated as 100*(Final Treatment Tumor Volume/Initial Treatment Tumor Volume)/(Final Control Tumor Volume/Initial Control Tumor Volume). […] The effect of treatment on tumor growth was analyzed using repeated measures analysis of variance (RM ANOVA), p<0.05 was considered significant. […] AU treatments were administered i.p. The effect of treatments on tumor growth were analyzed using repeated measures analysis of variance (RM ANOVA), p<0.05 was considered significant.

O=P1(N(CCCl)CCCl)NCCCO1 (stereo not shown) [cyclophosphamide, reference compound]
T/C %: 65%
